US12479847B2 (DANA-FARBER CANCER INSTITUTE, INC., priority 2019, dated 2025)

What was measured:
Assay in all cases: KINOMEscan (ScanMAX) kinase profiling
Type in all cases: binding
panel of 468 kinases [1] = target: T1, panel of 468 kinases (Homo sapiens, UniProt P00519, Y253F); settings: ABL1(Y253F)-phosphorylated; 1 μM; read-out: % control
T1 construct: purchased KINOMEscan (ScanMAX) service

panel of 468 kinases [2] = target: T2, panel of 468 kinases (Homo sapiens, UniProt P31751); settings: AKT2; 1 μM; read-out: % control
T2 construct: purchased KINOMEscan (ScanMAX) service
T2 sequence (P31751 whole entry): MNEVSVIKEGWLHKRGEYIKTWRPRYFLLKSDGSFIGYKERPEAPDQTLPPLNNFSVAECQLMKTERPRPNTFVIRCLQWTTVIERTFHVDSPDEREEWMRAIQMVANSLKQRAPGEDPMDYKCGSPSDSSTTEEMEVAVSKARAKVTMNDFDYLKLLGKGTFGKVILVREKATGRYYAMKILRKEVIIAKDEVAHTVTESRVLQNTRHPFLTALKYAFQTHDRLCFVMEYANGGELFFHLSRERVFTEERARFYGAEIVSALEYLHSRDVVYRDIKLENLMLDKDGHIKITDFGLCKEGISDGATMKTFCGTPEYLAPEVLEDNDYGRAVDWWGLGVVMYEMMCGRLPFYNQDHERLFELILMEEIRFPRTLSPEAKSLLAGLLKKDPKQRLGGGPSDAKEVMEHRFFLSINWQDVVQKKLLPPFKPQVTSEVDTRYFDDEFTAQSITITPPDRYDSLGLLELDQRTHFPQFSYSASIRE

panel of 468 kinases [3] = target: T3, panel of 468 kinases (Homo sapiens, UniProt P07949, V804M); settings: RET(V804M); 1 μM; read-out: % control
T3 construct: purchased KINOMEscan (ScanMAX) service
T3 sequence (P07949 29-1114 V804M): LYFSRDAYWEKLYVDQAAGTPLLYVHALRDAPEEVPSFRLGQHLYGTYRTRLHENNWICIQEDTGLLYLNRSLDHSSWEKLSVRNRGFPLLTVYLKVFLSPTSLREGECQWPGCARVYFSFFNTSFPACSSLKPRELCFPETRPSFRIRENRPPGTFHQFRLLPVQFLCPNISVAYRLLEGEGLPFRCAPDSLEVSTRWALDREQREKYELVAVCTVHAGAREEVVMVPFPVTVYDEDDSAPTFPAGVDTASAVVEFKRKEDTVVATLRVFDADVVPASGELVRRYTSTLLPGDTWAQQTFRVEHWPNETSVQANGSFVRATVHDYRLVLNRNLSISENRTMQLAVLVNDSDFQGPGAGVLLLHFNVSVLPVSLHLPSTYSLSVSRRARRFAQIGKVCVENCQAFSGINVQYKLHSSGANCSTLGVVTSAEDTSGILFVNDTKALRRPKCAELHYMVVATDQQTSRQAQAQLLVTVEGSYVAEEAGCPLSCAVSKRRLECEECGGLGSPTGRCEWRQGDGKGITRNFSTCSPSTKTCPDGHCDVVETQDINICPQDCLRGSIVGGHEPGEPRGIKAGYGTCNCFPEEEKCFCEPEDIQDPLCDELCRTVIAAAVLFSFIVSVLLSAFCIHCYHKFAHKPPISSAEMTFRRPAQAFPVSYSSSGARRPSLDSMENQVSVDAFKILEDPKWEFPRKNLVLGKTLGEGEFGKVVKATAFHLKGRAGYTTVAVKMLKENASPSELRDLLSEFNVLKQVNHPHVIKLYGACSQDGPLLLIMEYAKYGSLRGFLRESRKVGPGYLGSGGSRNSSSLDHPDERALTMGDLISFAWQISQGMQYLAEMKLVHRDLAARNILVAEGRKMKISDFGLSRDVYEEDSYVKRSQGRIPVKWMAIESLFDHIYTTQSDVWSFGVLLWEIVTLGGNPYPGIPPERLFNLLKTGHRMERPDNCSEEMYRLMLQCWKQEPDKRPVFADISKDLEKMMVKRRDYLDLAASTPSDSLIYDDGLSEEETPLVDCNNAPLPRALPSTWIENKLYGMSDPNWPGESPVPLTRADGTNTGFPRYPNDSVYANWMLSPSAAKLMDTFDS

panel of 468 kinases [4] = target: T4, panel of 468 kinases (Homo sapiens, UniProt O96013); settings: PAK4; 1 μM; read-out: % control
T4 construct: purchased KINOMEscan (ScanMAX) service
T4 sequence (O96013 whole entry): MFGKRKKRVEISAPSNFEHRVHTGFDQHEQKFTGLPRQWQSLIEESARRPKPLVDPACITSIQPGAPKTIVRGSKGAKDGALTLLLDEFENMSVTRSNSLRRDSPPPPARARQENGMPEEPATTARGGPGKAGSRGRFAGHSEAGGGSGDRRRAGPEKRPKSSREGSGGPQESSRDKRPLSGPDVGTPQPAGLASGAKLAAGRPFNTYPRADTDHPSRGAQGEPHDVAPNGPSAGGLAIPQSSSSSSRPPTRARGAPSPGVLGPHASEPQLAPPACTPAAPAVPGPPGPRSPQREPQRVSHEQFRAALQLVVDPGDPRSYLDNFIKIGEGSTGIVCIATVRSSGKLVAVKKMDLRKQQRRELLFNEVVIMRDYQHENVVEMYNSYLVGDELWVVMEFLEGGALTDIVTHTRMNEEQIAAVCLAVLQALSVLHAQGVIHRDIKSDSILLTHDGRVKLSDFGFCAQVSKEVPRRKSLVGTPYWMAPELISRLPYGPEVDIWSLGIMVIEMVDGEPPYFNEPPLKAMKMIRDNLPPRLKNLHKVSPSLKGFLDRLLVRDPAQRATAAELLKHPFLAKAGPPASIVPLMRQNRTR

panel of 468 kinases [5] = target: T5, panel of 468 kinases (Homo sapiens, UniProt Q9UQ88); settings: CDC2L2; 1 μM; read-out: % control
T5 construct: purchased KINOMEscan (ScanMAX) service
T5 sequence (Q9UQ88 1-783): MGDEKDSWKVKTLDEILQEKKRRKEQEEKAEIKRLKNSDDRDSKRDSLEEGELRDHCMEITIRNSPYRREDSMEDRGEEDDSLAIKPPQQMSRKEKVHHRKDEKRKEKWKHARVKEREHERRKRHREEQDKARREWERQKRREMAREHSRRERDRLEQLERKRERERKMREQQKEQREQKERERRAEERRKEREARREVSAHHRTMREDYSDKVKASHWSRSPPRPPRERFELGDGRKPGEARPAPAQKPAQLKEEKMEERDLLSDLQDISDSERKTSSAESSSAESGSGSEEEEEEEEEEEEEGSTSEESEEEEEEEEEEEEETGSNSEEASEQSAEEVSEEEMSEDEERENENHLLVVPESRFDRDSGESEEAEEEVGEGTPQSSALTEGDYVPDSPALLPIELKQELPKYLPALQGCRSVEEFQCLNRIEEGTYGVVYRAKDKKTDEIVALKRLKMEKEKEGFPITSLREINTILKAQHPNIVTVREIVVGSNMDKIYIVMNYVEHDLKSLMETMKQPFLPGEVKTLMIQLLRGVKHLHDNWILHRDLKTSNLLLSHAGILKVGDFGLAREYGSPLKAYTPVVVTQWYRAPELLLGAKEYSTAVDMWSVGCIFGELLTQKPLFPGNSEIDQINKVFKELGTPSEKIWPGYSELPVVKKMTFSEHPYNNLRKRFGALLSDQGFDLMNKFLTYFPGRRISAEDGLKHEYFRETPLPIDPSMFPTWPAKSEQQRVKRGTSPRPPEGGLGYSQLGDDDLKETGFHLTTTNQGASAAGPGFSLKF

panel of 468 kinases [6] = target: T6, panel of 468 kinases (Homo sapiens, UniProt P10721, T670I/V559D); settings: KIT(V559D,T670I); 1 μM; read-out: % control
T6 construct: purchased KINOMEscan (ScanMAX) service
T6 sequence (P10721 26-976 V559D/T670I): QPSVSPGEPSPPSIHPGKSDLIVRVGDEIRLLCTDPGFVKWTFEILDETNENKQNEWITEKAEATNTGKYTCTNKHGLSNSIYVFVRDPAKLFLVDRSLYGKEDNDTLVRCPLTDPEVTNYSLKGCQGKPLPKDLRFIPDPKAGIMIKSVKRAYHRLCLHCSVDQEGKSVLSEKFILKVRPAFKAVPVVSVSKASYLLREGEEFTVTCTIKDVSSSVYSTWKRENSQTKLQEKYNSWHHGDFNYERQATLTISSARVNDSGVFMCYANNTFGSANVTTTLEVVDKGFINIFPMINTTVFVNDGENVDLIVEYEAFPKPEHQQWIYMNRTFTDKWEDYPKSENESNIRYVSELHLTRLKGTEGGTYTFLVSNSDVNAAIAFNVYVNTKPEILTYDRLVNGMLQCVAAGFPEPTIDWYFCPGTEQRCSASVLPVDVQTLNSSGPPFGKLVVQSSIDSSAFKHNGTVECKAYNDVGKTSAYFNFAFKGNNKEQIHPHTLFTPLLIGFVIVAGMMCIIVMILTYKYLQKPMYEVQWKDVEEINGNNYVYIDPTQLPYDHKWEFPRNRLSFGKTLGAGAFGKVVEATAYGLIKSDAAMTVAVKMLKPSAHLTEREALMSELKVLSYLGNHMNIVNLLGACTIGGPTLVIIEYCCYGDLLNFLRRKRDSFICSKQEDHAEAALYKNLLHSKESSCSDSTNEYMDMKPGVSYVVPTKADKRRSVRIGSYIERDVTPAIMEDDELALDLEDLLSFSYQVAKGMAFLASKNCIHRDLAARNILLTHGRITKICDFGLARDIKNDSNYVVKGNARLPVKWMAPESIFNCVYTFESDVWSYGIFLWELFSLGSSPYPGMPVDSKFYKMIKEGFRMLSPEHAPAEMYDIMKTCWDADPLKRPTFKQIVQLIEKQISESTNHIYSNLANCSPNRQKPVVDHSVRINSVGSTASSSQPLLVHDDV

panel of 468 kinases [7] = target: T7, panel of 468 kinases (Homo sapiens, UniProt P42680); settings: TEC; 1 μM; read-out: % control
T7 construct: purchased KINOMEscan (ScanMAX) service
T7 sequence (P42680 1-631): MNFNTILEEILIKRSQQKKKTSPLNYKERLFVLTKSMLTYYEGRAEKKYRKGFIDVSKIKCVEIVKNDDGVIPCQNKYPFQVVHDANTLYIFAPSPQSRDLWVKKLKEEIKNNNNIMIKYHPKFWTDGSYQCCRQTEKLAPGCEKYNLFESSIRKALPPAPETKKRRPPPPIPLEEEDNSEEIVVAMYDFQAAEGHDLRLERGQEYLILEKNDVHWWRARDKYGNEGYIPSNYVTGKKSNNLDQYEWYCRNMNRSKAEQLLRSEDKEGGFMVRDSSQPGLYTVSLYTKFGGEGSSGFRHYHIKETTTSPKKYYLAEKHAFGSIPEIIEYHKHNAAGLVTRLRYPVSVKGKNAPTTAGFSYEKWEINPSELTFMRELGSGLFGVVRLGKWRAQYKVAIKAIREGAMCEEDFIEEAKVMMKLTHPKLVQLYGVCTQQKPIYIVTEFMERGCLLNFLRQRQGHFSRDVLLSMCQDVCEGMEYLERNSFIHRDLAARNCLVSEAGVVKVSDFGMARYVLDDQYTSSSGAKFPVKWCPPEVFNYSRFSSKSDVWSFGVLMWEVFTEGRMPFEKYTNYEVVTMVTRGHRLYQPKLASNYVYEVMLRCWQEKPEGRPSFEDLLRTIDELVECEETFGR

| SMILES | remaining binding at 1 µM (panel of 468 kinases [1]) | remaining binding at 1 µM (panel of 468 kinases [2]) | remaining binding at 1 µM (panel of 468 kinases [3]) | remaining binding at 1 µM (panel of 468 kinases [4]) | remaining binding at 1 µM (panel of 468 kinases [5]) | remaining binding at 1 µM (panel of 468 kinases [6]) | remaining binding at 1 µM (panel of 468 kinases [7]) |
| --- | --- | --- | --- | --- | --- | --- | --- |
| CNc1nc(Nc2ccc(C(=O)N3CCC(N4CCOCC4)CC3)c3c2OCO3)nc2[nH]cc(Cl)c12 [Compound 75, (7-((5-chloro-4-(methylamino)-7H-pyrrolo[2,3-d]pyrimidin-2-yl)amino)benzo[d][1,3]dioxol-4-yl)(4-morpholinopiperidin-1-yl)methanone] | 53% | 100% | 33% | 100% | 100% | 62% | 100% |
| CNc1nc(Nc2ccc(S(=O)(=O)N3CCC(N4CCOCC4)CC3)cc2OC)nc2[nH]cc(Cl)c12 [Compound 12, 5-chloro-N2-(2-methoxy-4-((4-morpholinopiperidin-1-yl)sulfonyl)phenyl)-N4-methyl-7H-pyrrolo[2,3-d]pyrimidine-2,4-diamine] | 51% | 100% | 96% | 100% | 100% | 89% | 93% |
| CNc1nc(Nc2ccc(P3(=O)CCN(C4CCOCC4)CC3)cc2OC)nc2[nH]cc(Cl)c12 [Compound 77, 4-(4-((5-chloro-4-(methylamino)-7H-pyrrolo[2,3-d]pyrimidin-2-yl)amino)-3-methoxyphenyl)-1-(tetrahydro-2H-pyran-4-yl)-1,4-azaphosphinane 4-oxide] | 53% | 100% | 97% | 100% | 100% | 100% | 97% |
